Reference: US20260092071A1, “COMPOUNDS AND COMPOSITIONS AS SMARCA2/4 DEGRADERS AND USES THEREOF” (REGENTS OF THE UNIVERSITY OF MICHIGAN, priority 2022, published 2026)
Like-named read-outs stand apart in the source and are kept apart here.

Legend:
SMARCA4 = SMARCA4 (Homo sapiens, UniProt P51532); experiment: HiBiT assay for protein degradation, Hela SMARCA4-HiBiT cells (A series); format: cell-based; design: fuse HiBiT to the carboxy terminus of SMARCA2 (Promega CS302365) or SMARCA4 (Promega CS3023225); host or cells: HeLa (CRISPR/Cas9 HiBiT knock-in); settings: Hela SMARCA4-HiBiT cells, 24 hours treatment; for DC50: read-out: SMARC A4 Hela HiBit DC50
Summary of the method: (§1)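 HeLa cells engineered by CRISPR/Cas9 to carry a HiBiT tag fused to the C-terminus of SMARCA4 (Promega CS3023225) were grown in DMEM supplemented with FBS and penicillin-streptomycin. After compound exposure, remaining SMARCA4 protein was quantified using the Nano-Glo® HiBiT Lytic Detection Assay (Promega N3050), and curves were fitted in GraphPad Prism.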

SMARCA2 = SMARCA2 (Homo sapiens, UniProt P51531); experiment: HiBiT assay for protein degradation, Hela SMARCA2-HiBiT cells (A series); format: cell-based; design: Hela cells were genetically modified via CRISPR/Cas9 to fuse HiBiT to the carboxy terminus of SMARCA2; host or cells: HeLa (CRISPR/Cas9 HiBiT knock-in); settings: for DC50: read-out: SMARC A2 Hela HiBit DC50; for Dmax: read-out: SMARC A2 Hela HiBit Dmax (%);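 on SMARC A2 Hela HiBit Dmax (%): 24 h compound treatment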
Summary of the method: as §1, with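 “SMARCA2” for “SMARCA4”, “CS302365)” for “CS3023225)”, “treatment,” for “compound exposure,”, “with” for “using”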

[1] = read-out: SMARC A4 Hela HiBit Dmax(%)
[2] = Hela SMARCA2-HiBiT cells, 24 hours treatment
[3] = read-out: SMARC A4 Hela HiBit Dmax

SMARCA4, sequence (P51532 whole entry, the tested form may be a part): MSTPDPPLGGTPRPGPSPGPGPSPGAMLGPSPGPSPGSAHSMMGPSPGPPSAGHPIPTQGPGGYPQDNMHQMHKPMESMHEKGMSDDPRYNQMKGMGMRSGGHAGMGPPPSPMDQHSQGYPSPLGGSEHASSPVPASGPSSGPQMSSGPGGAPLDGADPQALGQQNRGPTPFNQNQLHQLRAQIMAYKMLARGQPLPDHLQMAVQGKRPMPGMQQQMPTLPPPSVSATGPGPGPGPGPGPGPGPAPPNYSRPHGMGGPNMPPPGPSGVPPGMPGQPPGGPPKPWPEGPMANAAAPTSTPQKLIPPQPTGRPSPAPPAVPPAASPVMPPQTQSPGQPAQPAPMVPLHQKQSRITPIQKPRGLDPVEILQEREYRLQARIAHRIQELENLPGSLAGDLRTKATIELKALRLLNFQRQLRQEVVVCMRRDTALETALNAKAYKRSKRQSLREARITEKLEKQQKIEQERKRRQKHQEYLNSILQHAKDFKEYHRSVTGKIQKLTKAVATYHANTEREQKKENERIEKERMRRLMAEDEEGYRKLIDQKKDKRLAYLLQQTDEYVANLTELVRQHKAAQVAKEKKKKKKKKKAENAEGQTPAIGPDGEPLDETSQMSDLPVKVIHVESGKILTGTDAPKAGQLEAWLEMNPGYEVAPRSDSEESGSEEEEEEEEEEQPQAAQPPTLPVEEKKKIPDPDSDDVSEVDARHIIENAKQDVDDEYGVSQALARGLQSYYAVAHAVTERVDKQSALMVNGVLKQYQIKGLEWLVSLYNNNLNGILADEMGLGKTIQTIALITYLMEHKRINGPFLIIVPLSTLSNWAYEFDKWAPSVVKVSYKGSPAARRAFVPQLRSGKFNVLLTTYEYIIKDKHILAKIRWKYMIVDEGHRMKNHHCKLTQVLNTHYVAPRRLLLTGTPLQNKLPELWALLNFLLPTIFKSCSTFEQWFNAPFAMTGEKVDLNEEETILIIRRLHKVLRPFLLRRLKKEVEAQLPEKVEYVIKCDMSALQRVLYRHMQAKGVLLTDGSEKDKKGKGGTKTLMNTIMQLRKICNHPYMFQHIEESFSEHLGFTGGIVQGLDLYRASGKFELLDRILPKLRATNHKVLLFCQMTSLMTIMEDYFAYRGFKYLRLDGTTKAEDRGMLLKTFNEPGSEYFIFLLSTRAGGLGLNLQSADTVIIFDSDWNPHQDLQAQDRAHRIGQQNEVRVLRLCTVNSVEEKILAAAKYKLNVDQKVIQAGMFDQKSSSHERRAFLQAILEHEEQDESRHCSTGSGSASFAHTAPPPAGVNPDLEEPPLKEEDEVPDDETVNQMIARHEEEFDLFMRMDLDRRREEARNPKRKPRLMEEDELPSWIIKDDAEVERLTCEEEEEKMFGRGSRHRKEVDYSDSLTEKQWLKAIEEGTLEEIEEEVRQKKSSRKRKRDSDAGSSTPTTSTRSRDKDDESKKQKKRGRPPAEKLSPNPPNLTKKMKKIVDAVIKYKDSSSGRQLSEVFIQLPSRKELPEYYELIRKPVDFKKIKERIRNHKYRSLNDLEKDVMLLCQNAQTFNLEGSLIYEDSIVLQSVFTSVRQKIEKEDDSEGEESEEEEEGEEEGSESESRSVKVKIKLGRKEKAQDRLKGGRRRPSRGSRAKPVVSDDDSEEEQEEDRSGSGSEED
SMARCA2, sequence (P51531 whole entry): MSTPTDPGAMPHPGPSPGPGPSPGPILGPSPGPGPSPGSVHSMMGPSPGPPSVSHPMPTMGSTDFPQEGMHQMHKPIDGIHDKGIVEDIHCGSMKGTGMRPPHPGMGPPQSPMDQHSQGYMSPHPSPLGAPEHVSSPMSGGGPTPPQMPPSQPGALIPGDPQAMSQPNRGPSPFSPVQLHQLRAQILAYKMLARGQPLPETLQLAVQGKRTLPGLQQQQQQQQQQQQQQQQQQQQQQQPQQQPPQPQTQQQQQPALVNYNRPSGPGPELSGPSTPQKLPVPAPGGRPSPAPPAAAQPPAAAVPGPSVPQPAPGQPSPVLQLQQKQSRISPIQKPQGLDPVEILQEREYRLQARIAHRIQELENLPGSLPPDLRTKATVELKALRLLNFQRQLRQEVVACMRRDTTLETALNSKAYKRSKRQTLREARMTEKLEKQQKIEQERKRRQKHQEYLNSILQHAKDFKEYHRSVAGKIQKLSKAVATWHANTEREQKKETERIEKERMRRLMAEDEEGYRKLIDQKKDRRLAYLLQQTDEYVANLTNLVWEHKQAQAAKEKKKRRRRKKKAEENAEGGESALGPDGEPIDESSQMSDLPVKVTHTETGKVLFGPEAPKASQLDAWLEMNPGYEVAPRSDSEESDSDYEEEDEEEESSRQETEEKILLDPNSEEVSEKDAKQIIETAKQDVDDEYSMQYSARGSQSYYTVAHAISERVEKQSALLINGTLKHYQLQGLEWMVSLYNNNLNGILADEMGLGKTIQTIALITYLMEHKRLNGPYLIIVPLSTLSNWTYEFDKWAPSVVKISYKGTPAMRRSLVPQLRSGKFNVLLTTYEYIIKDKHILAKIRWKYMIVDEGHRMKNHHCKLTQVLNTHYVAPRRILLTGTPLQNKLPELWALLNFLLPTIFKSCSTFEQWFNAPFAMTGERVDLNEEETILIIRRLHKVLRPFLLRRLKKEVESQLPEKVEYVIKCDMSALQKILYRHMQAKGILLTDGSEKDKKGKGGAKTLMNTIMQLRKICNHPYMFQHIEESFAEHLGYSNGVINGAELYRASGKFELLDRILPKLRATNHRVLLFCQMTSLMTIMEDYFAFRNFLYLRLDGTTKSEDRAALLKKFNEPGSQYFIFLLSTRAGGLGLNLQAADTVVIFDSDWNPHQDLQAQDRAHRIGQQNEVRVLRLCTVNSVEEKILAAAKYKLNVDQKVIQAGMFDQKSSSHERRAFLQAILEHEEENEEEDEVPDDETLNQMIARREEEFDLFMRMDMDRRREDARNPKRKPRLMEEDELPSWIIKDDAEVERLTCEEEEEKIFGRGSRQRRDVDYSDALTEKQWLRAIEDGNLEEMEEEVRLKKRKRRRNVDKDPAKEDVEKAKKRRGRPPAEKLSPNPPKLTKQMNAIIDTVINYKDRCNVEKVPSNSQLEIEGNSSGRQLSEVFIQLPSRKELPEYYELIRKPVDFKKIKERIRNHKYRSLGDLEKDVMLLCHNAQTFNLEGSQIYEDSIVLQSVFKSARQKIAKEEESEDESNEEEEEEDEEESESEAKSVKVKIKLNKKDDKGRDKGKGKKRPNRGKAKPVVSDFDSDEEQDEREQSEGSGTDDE

Row | DC50 (SMARCA4) | Dmax (SMARCA4; [1]) | DC50 (SMARCA2; [2]) | Dmax (SMARCA2; [2]) | Dmax (SMARCA4; [3]) | Compound | Dmax (SMARCA2; HeLa)
1 | > 1000 nM | < 50% | < 100 nM | > 90% | – | Cc1ncsc1-c1ccc([C@H](CN2CCS(=O)(=O)CC2)NC(=O)[C@@H]2C[C@@H](O)CN2C(=O)[C@@H](n2cc([C@H]3CC[C@H](CN4CCC(c5ccc6c(c5)-n5c(nc(=O)c7c(Cl)cccc75)C65CCCCC5)CC4)CC3)nn2)C(C)(C)C)cc1 [Compound A72, (2S,4R)-1-((S)-2-(4-((1r,4S)-4-((4-(4′-chloro-5′-oxo-5′H-spiro[cyclohexane-1,7′-indolo[1,2-a]quinazolin]-10′-yl)piperidin-1-yl)methyl)cyclohexyl)-1H-1,2,3-triazol-1-yl)-3,3-dimethylbutanoyl)-N—((R)-2-(1,1-dioxidothiomorpholino)-1-(4-(4-methylthiazol-5-yl)phenyl)ethyl)-4-hydroxypyrrolidine-2-carboxamide] | –
2 | > 1000 nM | 50 to 69% | < 100 nM | > 90% | – | Cc1ncsc1-c1ccc([C@H](CN2CCC(O)CC2)NC(=O)[C@@H]2C[C@@H](O)CN2C(=O)[C@@H](n2cc([C@H]3CC[C@H](CN4CCC(c5ccc6c(c5)-n5c(nc(=O)c7c(Cl)cccc75)C65CCCCC5)CC4)CC3)nn2)C(C)(C)C)cc1 [Compound A73, (2S,4R)-1-((S)-2-(4-((1r,4S)-4-((4-(4′-chloro-5′-oxo-5′H-spiro[cyclohexane-1,7′-indolo[1,2-a]quinazolin]-10′-yl)piperidin-1-yl)methyl)cyclohexyl)-1H-1,2,3-triazol-1-yl)-3,3-dimethylbutanoyl)-4-hydroxy-N—((R)-2-(4-hydroxypiperidin-1-yl)-1-(4-(4-methylthiazol-5-yl)phenyl)ethyl)pyrrolidine-2-carboxamide] | –
3 | > 1000 nM | 50 to 69% | < 100 nM | > 90% | – | Cc1ncsc1-c1ccc([C@H](CN2CC(C)(F)C2)NC(=O)[C@@H]2C[C@@H](O)CN2C(=O)[C@@H](n2cc([C@H]3CC[C@H](CN4CCC(c5ccc6c(c5)-n5c(nc(=O)c7c(Cl)cccc75)C65CCCCC5)CC4)CC3)nn2)C(C)(C)C)cc1 [Compound A74, (2S,4R)-1-((S)-2-(4-((1r,4S)-4-((4-(4′-chloro-5′-oxo-5′H-spiro[cyclohexane-1,7′-indolo[1,2-a]quinazolin]-10′-yl)piperidin-1-yl)methyl)cyclohexyl)-1H-1,2,3-triazol-1-yl)-3,3-dimethylbutanoyl)-N—((R)-2-(3-fluoro-3-methylazetidin-1-yl)-1-(4-(4-methylthiazol-5-yl)phenyl)ethyl)-4-hydroxypyrrolidine-2-carboxamide] | –
4 | > 1000 nM | < 50% | < 100 nM | > 90% | – | Cc1ncsc1-c1ccc([C@H](CN2CCC(F)(F)CC2)NC(=O)[C@@H]2C[C@@H](O)CN2C(=O)[C@@H](n2cc([C@H]3CC[C@H](CN4CCC(c5ccc6c(c5)-n5c(nc(=O)c7c(Cl)cccc75)C65CCCCC5)CC4)CC3)nn2)C(C)(C)C)cc1 [Compound A75, (2S,4R)-1-((S)-2-(4-((1r,4S)-4-((4-(4′-chloro-5′-oxo-5′H-spiro[cyclohexane-1,7′-indolo[1,2-a]quinazolin]-10′-yl)piperidin-1-yl)methyl)cyclohexyl)-1H-1,2,3-triazol-1-yl)-3,3-dimethylbutanoyl)-N—((R)-2-(4,4-difluoropiperidin-1-yl)-1-(4-(4-methylthiazol-5-yl)phenyl)ethyl)-4-hydroxypyrrolidine-2-carboxamide] | –
5 | > 1000 nM | – | < 10 nM | > 90% | < 50% | Cc1ncsc1-c1ccc([C@H](C)NC(=O)[C@@H]2C[C@@H](O)CN2C(=O)[C@@H](n2cc([C@H]3CC[C@H](CN4CCC(c5cnc6c(c5)-n5c(nc(=O)c7c(Br)cccc75)C65CCCCC5)CC4)CC3)nn2)C(C)(C)C)cc1 [Compound A76, (2S,4R)-1-((S)-2-(4-((1r,4S)-4-((4-(4′-bromo-5′-oxo-5′H-spiro[cyclohexane-1,7′-pyrido[2′,3′: 4,5]pyrrolo[1,2-a]quinazolin]-10′-yl)piperidin-1-yl)methyl)cyclohexyl)-1H-1,2,3-triazol-1-yl)-3,3-dimethylbutanoyl)-4-hydroxy-N—((S)-1-(4-(4-methylthiazol-5-yl)phenyl)ethyl)pyrrolidine-2-carboxamide] | –
6 | > 1000 nM | – | < 10 nM | > 90% | 50 to 69% | Cc1ncsc1-c1ccc([C@H](CN2CCC(C(F)(F)F)CC2)NC(=O)[C@@H]2C[C@@H](O)CN2C(=O)[C@@H](n2cc([C@H]3CC[C@H](CN4CCC(c5ccc6c(c5)-n5c(nc(=O)c7c(Cl)cccc75)C65CCCCC5)CC4)CC3)nn2)C(C)(C)C)cc1 [Compound A83, (2S,4R)-1-((S)-2-(4-((1r,4S)-4-((4-(4′-chloro-5′-oxo-5′H-spiro[cyclohexane-1,7′-indolo[1,2-a]quinazolin]-10′-yl)piperidin-1-yl)methyl)cyclohexyl)-1H-1,2,3-triazol-1-yl)-3,3-dimethylbutanoyl)-4-hydroxy-N-(®-1-(4-(4-methylthiazol-5-yl)phenyl)-2-(4-(trifluoromethyl)piperidin-1-yl)ethyl)pyrrolidine-2-carboxamide] | –
7 | > 1000 nM | – | 10 to 100 nM | > 90% | < 50% | Cc1ncsc1-c1ccc([C@H](CN2CCC(C(F)F)CC2)NC(=O)[C@@H]2C[C@@H](O)CN2C(=O)[C@@H](n2cc([C@H]3CC[C@H](CN4CCC(c5ccc6c(c5)-n5c(nc(=O)c7c(Cl)cccc75)C65CCCCC5)CC4)CC3)nn2)C(C)(C)C)cc1 [Compound A84, (2S,4R)-1-((S)-2-(4-((1r,4S)-4-((4-(4′-chloro-5′-oxo-5′H-spiro[cyclohexane-1,7′-indolo[1,2-a]quinazolin]-10′-yl)piperidin-1-yl)methyl)cyclohexyl)-1H-1,2,3-triazol-1-yl)-3,3-dimethylbutanoyl)-N—((R)-2-(4-(difluoromethyl)piperidin-1-yl)-1-(4-(4-methylthiazol-5-yl)phenyl)ethyl)-4-hydroxypyrrolidine-2-carboxamide] | –
8 | 10 to 100 nM | – | < 10 nM | > 90% | 50 to 69% | Cc1ncsc1-c1ccc([C@H](CN2CCN(C)CC2)NC(=O)[C@@H]2C[C@@H](O)CN2C(=O)[C@@H](n2cc([C@H]3CC[C@H](CN4CCC(c5ccc6c(c5)-n5c(nc(=O)c7c(Cl)cccc75)C65CCCCC5)CC4)CC3)nn2)C(C)(C)C)cc1 [Compound A85, (2S,4R)-1-((S)-2-(4-((1r,4S)-4-((4-(4′-chloro-5′-oxo-5′H-spiro[cyclohexane-1,7′-indolo[1,2-a]quinazolin]-10′-yl)piperidin-1-yl)methyl)cyclohexyl)-1H-1,2,3-triazol-1-yl)-3,3-dimethylbutanoyl)-4-hydroxy-N—((R)-2-(4-methylpiperazin-1-yl)-1-(4-(4-methylthiazol-5-yl)phenyl)ethyl)pyrrolidine-2-carboxamide] | –
9 | > 1000 nM | – | < 10 nM | > 90% | 50 to 69% | COCCOC[C@H](NC(=O)[C@@H]1C[C@@H](O)CN1C(=O)[C@@H](n1cc([C@H]2CC[C@H](CN3CCC(c4ccc5c(c4)-n4c(nc(=O)c6c(Cl)cccc64)C54CCCCC4)CC3)CC2)nn1)C(C)(C)C)c1ccc(-c2scnc2C)cc1 [Compound A86, (2S,4R)-1-((S)-2-(4-((1r,4S)-4-((4-(4′-chloro-5′-oxo-5′H-spiro[cyclohexane-1,7′-indolo[1,2-a]quinazolin]-10′-yl)piperidin-1-yl)methyl)cyclohexyl)-1H-1,2,3-triazol-1-yl)-3,3-dimethylbutanoyl)-4-hydroxy-N-(®-2-(2-methoxyethoxy)-1-(4-(4-methylthiazol-5-yl)phenyl)ethyl)pyrrolidine-2-carboxamide] | –

Row | Compound | DC50 (SMARCA4) | Dmax (SMARCA4; [1]) | DC50 (SMARCA2; [2]) | Dmax (SMARCA2; [2]) | Dmax (SMARCA4; [3]) | Dmax (SMARCA2; HeLa)
10 | Cc1ncsc1-c1ccc([C@H](C)NC(=O)[C@@H]2C[C@@H](O)CN2C(=O)[C@@H](n2cc([C@H]3CC[C@H](CN4CCC(c5ccc6c(n5)-n5c(nc(=O)c7c(Cl)cccc75)C65CCCCC5)CC4)CC3)nn2)C(C)(C)C)cc1 [Compound A78, (2S,4R)-1-((S)-2-(4-((1r,4S)-4-((4-(4′-chloro-5′-oxo-5′H-spiro[cyclohexane-1,7′-pyrido[3′,2′: 4,5]pyrrolo[1,2-a]quinazolin]-10′-yl)piperidin-1-yl)methyl)cyclohexyl)-1H-1,2,3-triazol-1-yl)-3,3-dimethylbutanoyl)-4-hydroxy-N—((S)-1-(4-(4-methylthiazol-5-yl)phenyl)ethyl)pyrrolidine-2-carboxamide] | > 1000 nM | – | 10 to 100 nM | – | – | 70 to 90%
